Data as given in ChEMBL document CHEMBL4811309, “Design, synthesis and antiproliferative activity of novel 2,4-diamino-5-methyleneaminopyrimidine derivatives as potential anticancer agents” (Bioorg Med Chem Lett, 2021).

Key:
Format in all cases: functional, cell-based
[1] = tested on: MCF7; assay: Antiproliferative activity against human MCF7 cells assessed as reduction in cell viability by MTT assay
[2] = tested on: HT-29; assay: Antiproliferative activity against human HT-29 cells assessed as reduction in cell viability by MTT assay
[3] = tested on: HeLa; assay: Antiproliferative activity against human HeLa cells assessed as reduction in cell viability by MTT assay
[4] = tested on: HCT-116; assay: Antiproliferative activity against human HCT-116 cells assessed as reduction in cell viability by MTT assay

Compound	IC50 [1]	IC50 [2]	IC50 [3]	IC50 [4]
CN1CCN(c2ccc(Nc3ncc(/N=C/c4ccc(C(F)(F)F)cc4)c(NC4CCCC4)n3)cc2)CC1	> 100 µM	80.7 µM	> 100 µM	> 100 µM
CC(C)Nc1nc(Nc2ccc(S(N)(=O)=O)cc2)ncc1/N=C/c1ccccc1	> 100 µM	98.2 µM	> 100 µM	> 100 µM
NS(=O)(=O)c1ccc(Nc2ncc(/N=C/c3ccccc3)c(NC3CCCC3)n2)cc1	39.1 µM	27 µM	15.6 µM	26.1 µM
CC(C)Nc1nc(Nc2ccc(N3CCN(C)CC3)cc2)ncc1/N=C/c1ccc(C(F)(F)F)cc1	> 100 µM	> 100 µM	> 100 µM	42.2 µM
C(=N\c1cnc(Nc2ccc(N3CCOCC3)cc2)nc1NC1CCCC1)/c1ccccc1	> 100 µM	67.6 µM	> 100 µM	> 100 µM
CCOC(=O)/C=N/c1cnc(Nc2ccc(N3CCOCC3)cc2)nc1NC(C)C	15.2 µM	19.6 µM	27.7 µM	23.7 µM
CC(C)Nc1nc(Nc2ccc(S(N)(=O)=O)cc2)ncc1/N=C/c1cccs1	50.2 µM	> 100 µM	> 100 µM	82.1 µM
FC(F)(F)c1ccc(/C=N/c2cnc(Nc3ccc(N4CCOCC4)cc3)nc2NC2CCCC2)cc1	> 100 µM	> 100 µM	> 100 µM	97.2 µM
CN1CCN(c2ccc(Nc3ncc(/N=C/c4cccs4)c(NC4CCCC4)n3)cc2)CC1	33.9 µM	21.7 µM	25.7 µM	18.9 µM

Next, values leading:

IC50 [1]	IC50 [2]	IC50 [3]	IC50 [4]	Compound
> 100 µM	25.3 µM	> 100 µM	14.8 µM	CC(C)Nc1nc(Nc2ccc(N3CCOCC3)cc2)ncc1/N=C/c1cccs1
> 100 µM	> 100 µM	21.9 µM	> 100 µM	NS(=O)(=O)c1ccc(Nc2ncc(/N=C/c3ccc(C(F)(F)F)cc3)c(NC3CCCC3)n2)cc1
42.3 µM	15.1 µM	18.9 µM	17 µM	CCOC(=O)/C=N/c1cnc(Nc2ccc(N3CCN(C)CC3)cc2)nc1NC1CCCC1
> 100 µM	12.1 µM	> 100 µM	> 100 µM	CC(C)Nc1nc(Nc2ccc(N3CCN(C)CC3)cc2)ncc1/N=C/c1ccccc1
